# Data as given in patent US11540518B2, “Fungicidal oxadiazoles” (FMC Corporation, priority 2017, dated 2023).
# System: Zymoseptoria tritici
# Assay: Test B: wheat leaf blotch control on wheat seedlings
# Assay type: in vivo
# Settings: 10 ppm, sprayed to run-off on wheat seedlings, inoculated the following day; 100 = 100% disease control, 0 = no control
# Text: General protocol for preparing test suspensions for Tests A-C: the test compounds were first dissolved in acetone in an amount equal to 3% of the final volume and then suspended at the desired concentration (in ppm) in acetone and purified water (50/50 mix by volume) containing 250 ppm of the surfactant PEG400 (polyhydric alcohol esters). The resulting test suspensions were then used in Tests A-C. The test solution was sprayed to the point of run-off on wheat seedlings. The following day the seedlings were inoculated with a spore suspension of Zymoseptoria tritici (the causal agent of wheat leaf blotch) and incubated in a saturated atmosphere at 24° C. for 48 h, and then moved to a growth chamber at 20° C. for 17 days, after which time disease ratings were made. Results for Tests A-C are given in Table A. In the Table, a rating of 100 indicates 100% disease control and a rating of 0 indicates no disease control (relative to the controls). A dash (-) indicates the compound was not tested.
row,SMILES,Test B disease control rating
1,CNC(=O)OCCc1ccc(-c2noc(C(F)(F)F)n2)cc1 [Compound 42],0%

# Same assay, conditions: 250 ppm (incl. values marked * = tested at 250 ppm), sprayed to run-off on wheat seedlings, inoculated the following day; 100 = 100% disease control, 0 = no control
row,SMILES,Test B disease control rating
1,Cc1ccc(C(OC(=O)n2ccnc2)c2ccc(-c3noc(C(F)(F)F)n3)cc2)cc1 (stereo not drawn) [Compound 100],98%
2,CC(C)CNC(=O)OC(c1ccccc1)c1ccc(-c2noc(C(F)(F)F)n2)cc1 (stereo not drawn) [Compound 140],34%
3,CCNC(=O)OC(c1ccc(C)cc1)c1ccc(-c2noc(C(F)(F)F)n2)cc1 (stereo not drawn) [Compound 145],28%
4,Cc1ccccc1C(OC(N)=O)c1ccc(-c2noc(C(F)(F)F)n2)cc1 (stereo not drawn) [Compound 128],88%
5,C#CCNC(=O)OC(c1ccc(-c2noc(C(F)(F)F)n2)cc1)c1cccc(F)c1 (stereo not drawn) [Compound 135],88%
6,CN(C)C(=O)OC(c1ccc(-c2noc(C(F)(F)F)n2)cc1)c1cccc(F)c1 (stereo not drawn) [Compound 134],50%
7,CNC(=O)OC(c1ccc(-c2noc(C(F)(F)F)n2)cc1)c1cccc(F)c1 (stereo not drawn) [Compound 132],95%
8,"CCNC(=O)OCCc1ccc(-c2noc(C(F)(F)F)n2)cc1 [Compound 43, 2-[4-[5-(trifluoromethyl)-1,2,4-oxadiazol-3-yl]phenyl]ethyl N-ethylcarbamate]",0* %
9,C#CCNC(=O)OC(c1ccc(-c2noc(C(F)(F)F)n2)cc1)c1cccc(Cl)c1 (stereo not drawn) [Compound 104],84%
10,CNC(=O)OCc1cccc(-c2noc(C(F)(F)F)n2)c1 [Compound 94],1%
11,O=C(OCc1cccc(-c2noc(C(F)(F)F)n2)c1)n1ccnc1 [Compound 123],0%
12,CCCNC(=O)OCc1ccc(-c2noc(C(F)(F)F)n2)s1 [Compound 46],97* %
13,NC(=O)OC(c1ccc(F)cc1)c1ccc(-c2noc(C(F)(F)F)n2)cc1 (stereo not drawn) [Compound 112],85%
14,C#CCNC(=O)OCc1cccc(-c2noc(C(F)(F)F)n2)c1 [Compound 96],64%
15,CCOC(=O)NN=Cc1ccc(-c2noc(C(F)(F)F)n2)s1 [Compound 124],73* %
16,NC(=O)OCc1ccc(-c2noc(C(F)(F)F)n2)cc1Cl [Compound 86],94%
17,CCNC(=O)OCc1ccc(-c2noc(C(F)(F)F)n2)s1 [Compound 39],93* %

# Same assay, conditions: 255 ppm, sprayed to run-off on wheat seedlings, inoculated the following day; 100 = 100% disease control, 0 = no control
row,SMILES,Test B disease control rating
1,CC(C)(C)NC(=O)OCc1ccc(-c2noc(C(F)(F)F)n2)cc1 [Compound 16],19%

# Same assay, conditions: 260 ppm, sprayed to run-off on wheat seedlings, inoculated the following day; 100 = 100% disease control, 0 = no control
row,SMILES,Test B disease control rating
1,CCNC(=O)OCC(OC)c1ccc(-c2noc(C(F)(F)F)n2)cc1 (racemic) [Compound 5],81%

# Same assay, conditions: 265 ppm, sprayed to run-off on wheat seedlings, inoculated the following day; 100 = 100% disease control, 0 = no control
row,SMILES,Test B disease control rating
1,CCCCNC(=O)OCc1ccc(-c2noc(C(F)(F)F)n2)cc1 [Compound 15],92%

# System: Phakopsora pachyrhizi
# Assay: Test A: Asian soybean rust control on soybean seedlings
# Assay type: in vivo
# Settings: 10 ppm, sprayed to run-off on soybean seedlings, inoculated the following day; 100 = 100% disease control, 0 = no control
# Procedure, shortened: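 Compounds in acetone/water (50/50) with 250 ppm PEG400 were sprayed to run-off on soybean seedlings, which were inoculated with P. pachyrhizi spores the next day. Plants were held in saturated atmosphere at 22° C for 24 h, then 8 days at 22° C, before visual rating (0–100% disease control vs controls).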
row,SMILES,Test A disease control rating
1,CNC(=O)OCCc1ccc(-c2noc(C(F)(F)F)n2)cc1 [Compound 42],100%
2,CCCNC(=O)OCc1ccc(-c2noc(C(F)(F)F)n2)s1 [Compound 46],99%
3,CCNC(=O)OCc1ccc(-c2noc(C(F)(F)F)n2)s1 [Compound 39],96%

# Same assay, conditions: 50 ppm, sprayed to run-off on soybean seedlings, inoculated the following day; 100 = 100% disease control, 0 = no control
row,SMILES,Test A disease control rating
1,CCOC(=O)NN=Cc1ccc(-c2noc(C(F)(F)F)n2)s1 [Compound 124],100%

# Same assay, conditions: 250 ppm, sprayed to run-off on soybean seedlings, inoculated the following day; 100 = 100% disease control, 0 = no control
row,SMILES,Test A disease control rating
1,Cc1ccc(C(OC(=O)n2ccnc2)c2ccc(-c3noc(C(F)(F)F)n3)cc2)cc1 (stereo not drawn) [Compound 100],100%
2,CC(C)CNC(=O)OC(c1ccccc1)c1ccc(-c2noc(C(F)(F)F)n2)cc1 (stereo not drawn) [Compound 140],100%
3,CCNC(=O)OC(c1ccc(C)cc1)c1ccc(-c2noc(C(F)(F)F)n2)cc1 (stereo not drawn) [Compound 145],100%
4,Cc1ccccc1C(OC(N)=O)c1ccc(-c2noc(C(F)(F)F)n2)cc1 (stereo not drawn) [Compound 128],100%
5,C#CCNC(=O)OC(c1ccc(-c2noc(C(F)(F)F)n2)cc1)c1cccc(F)c1 (stereo not drawn) [Compound 135],100%
6,CN(C)C(=O)OC(c1ccc(-c2noc(C(F)(F)F)n2)cc1)c1cccc(F)c1 (stereo not drawn) [Compound 134],100%
7,CNC(=O)OC(c1ccc(-c2noc(C(F)(F)F)n2)cc1)c1cccc(F)c1 (stereo not drawn) [Compound 132],100%
8,C#CCNC(=O)OC(c1ccc(-c2noc(C(F)(F)F)n2)cc1)c1cccc(Cl)c1 (stereo not drawn) [Compound 104],100%
9,CNC(=O)OCc1cccc(-c2noc(C(F)(F)F)n2)c1 [Compound 94],69%
10,NC(=O)OC(c1ccc(F)cc1)c1ccc(-c2noc(C(F)(F)F)n2)cc1 (stereo not drawn) [Compound 112],100%
11,C#CCNC(=O)OCc1cccc(-c2noc(C(F)(F)F)n2)c1 [Compound 96],100%
12,NC(=O)OCc1ccc(-c2noc(C(F)(F)F)n2)cc1Cl [Compound 86],100%

# Same assay, conditions: 255 ppm, sprayed to run-off on soybean seedlings, inoculated the following day; 100 = 100% disease control, 0 = no control
row,SMILES,Test A disease control rating
1,CC(C)(C)NC(=O)OCc1ccc(-c2noc(C(F)(F)F)n2)cc1 [Compound 16],100%

# Same assay, conditions: 260 ppm, sprayed to run-off on soybean seedlings, inoculated the following day; 100 = 100% disease control, 0 = no control
row,SMILES,Test A disease control rating
1,CCNC(=O)OCC(OC)c1ccc(-c2noc(C(F)(F)F)n2)cc1 (racemic) [Compound 5],100%

# Same assay, conditions: 265 ppm, sprayed to run-off on soybean seedlings, inoculated the following day; 100 = 100% disease control, 0 = no control
row,SMILES,Test A disease control rating
1,CCCCNC(=O)OCc1ccc(-c2noc(C(F)(F)F)n2)cc1 [Compound 15],100%

# Same assay, conditions: Phakopsora pachyrhizi, 216 h; 10 ppm, sprayed to run-off on soybean seedlings, inoculated the following day; 100 = 100% disease control, 0 = no control; read-out: Test A disease control rating
row,SMILES,pest or weed control at 10 ppm
1,"CCNC(=O)OCCc1ccc(-c2noc(C(F)(F)F)n2)cc1 [Compound 43, 2-[4-[5-(trifluoromethyl)-1,2,4-oxadiazol-3-yl]phenyl]ethyl N-ethylcarbamate]",100%

# Same assay, conditions: Phakopsora pachyrhizi, 216 h; 250 ppm, sprayed to run-off on soybean seedlings, inoculated the following day; 100 = 100% disease control, 0 = no control; read-out: Test A disease control rating
row,SMILES,pest or weed control at 250 ppm
1,O=C(OCc1cccc(-c2noc(C(F)(F)F)n2)c1)n1ccnc1 [Compound 123],100%

# System: Puccinia recondita f. sp. tritici
# Assay: Test C: wheat leaf rust control on wheat seedlings
# Assay type: in vivo
# Settings: 10 ppm, sprayed to run-off on wheat seedlings, inoculated the following day; 100 = 100% disease control, 0 = no control
# Procedure, shortened: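 Wheat seedlings were sprayed to run-off with compound suspension (ppm, acetone/water with 250 ppm PEG400), then inoculated with Puccinia recondita f. sp. tritici spores the next day. Plants were held 24 h in saturated atmosphere at 20 °C, then 6 days in a 20 °C growth chamber. Disease control is rated 0-100% relative to untreated controls.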
row,SMILES,Test C disease control rating
1,CNC(=O)OCCc1ccc(-c2noc(C(F)(F)F)n2)cc1 [Compound 42],99%
2,CCCNC(=O)OCc1ccc(-c2noc(C(F)(F)F)n2)s1 [Compound 46],97%
3,CCNC(=O)OCc1ccc(-c2noc(C(F)(F)F)n2)s1 [Compound 39],95%

# Same assay, conditions: 50 ppm, sprayed to run-off on wheat seedlings, inoculated the following day; 100 = 100% disease control, 0 = no control
row,SMILES,Test C disease control rating
1,CCOC(=O)NN=Cc1ccc(-c2noc(C(F)(F)F)n2)s1 [Compound 124],100%

# Same assay, conditions: 250 ppm, sprayed to run-off on wheat seedlings, inoculated the following day; 100 = 100% disease control, 0 = no control
row,SMILES,Test C disease control rating
1,Cc1ccc(C(OC(=O)n2ccnc2)c2ccc(-c3noc(C(F)(F)F)n3)cc2)cc1 (stereo not drawn) [Compound 100],97%
2,CC(C)CNC(=O)OC(c1ccccc1)c1ccc(-c2noc(C(F)(F)F)n2)cc1 (stereo not drawn) [Compound 140],86%
3,CCNC(=O)OC(c1ccc(C)cc1)c1ccc(-c2noc(C(F)(F)F)n2)cc1 (stereo not drawn) [Compound 145],98%
4,Cc1ccccc1C(OC(N)=O)c1ccc(-c2noc(C(F)(F)F)n2)cc1 (stereo not drawn) [Compound 128],100%
5,C#CCNC(=O)OC(c1ccc(-c2noc(C(F)(F)F)n2)cc1)c1cccc(F)c1 (stereo not drawn) [Compound 135],100%
6,CN(C)C(=O)OC(c1ccc(-c2noc(C(F)(F)F)n2)cc1)c1cccc(F)c1 (stereo not drawn) [Compound 134],89%
7,CNC(=O)OC(c1ccc(-c2noc(C(F)(F)F)n2)cc1)c1cccc(F)c1 (stereo not drawn) [Compound 132],100%
8,C#CCNC(=O)OC(c1ccc(-c2noc(C(F)(F)F)n2)cc1)c1cccc(Cl)c1 (stereo not drawn) [Compound 104],80%
9,CNC(=O)OCc1cccc(-c2noc(C(F)(F)F)n2)c1 [Compound 94],100%
10,NC(=O)OC(c1ccc(F)cc1)c1ccc(-c2noc(C(F)(F)F)n2)cc1 (stereo not drawn) [Compound 112],100%
11,C#CCNC(=O)OCc1cccc(-c2noc(C(F)(F)F)n2)c1 [Compound 96],100%
12,NC(=O)OCc1ccc(-c2noc(C(F)(F)F)n2)cc1Cl [Compound 86],100%

# Same assay, conditions: 255 ppm, sprayed to run-off on wheat seedlings, inoculated the following day; 100 = 100% disease control, 0 = no control
row,SMILES,Test C disease control rating
1,CC(C)(C)NC(=O)OCc1ccc(-c2noc(C(F)(F)F)n2)cc1 [Compound 16],100%

# Same assay, conditions: 260 ppm, sprayed to run-off on wheat seedlings, inoculated the following day; 100 = 100% disease control, 0 = no control
row,SMILES,Test C disease control rating
1,CCNC(=O)OCC(OC)c1ccc(-c2noc(C(F)(F)F)n2)cc1 (racemic) [Compound 5],100%

# Same assay, conditions: 265 ppm, sprayed to run-off on wheat seedlings, inoculated the following day; 100 = 100% disease control, 0 = no control
row,SMILES,Test C disease control rating
1,CCCCNC(=O)OCc1ccc(-c2noc(C(F)(F)F)n2)cc1 [Compound 15],100%

# Same assay, conditions: Puccinia recondita, 168 h; 10 ppm, sprayed to run-off on wheat seedlings, inoculated the following day; 100 = 100% disease control, 0 = no control; read-out: Test C disease control rating
row,SMILES,pest or weed control at 10 ppm
1,"CCNC(=O)OCCc1ccc(-c2noc(C(F)(F)F)n2)cc1 [Compound 43, 2-[4-[5-(trifluoromethyl)-1,2,4-oxadiazol-3-yl]phenyl]ethyl N-ethylcarbamate]",97%

# Same assay, conditions: Puccinia recondita, 168 h; 250 ppm, sprayed to run-off on wheat seedlings, inoculated the following day; 100 = 100% disease control, 0 = no control; read-out: Test C disease control rating
row,SMILES,pest or weed control at 250 ppm
1,O=C(OCc1cccc(-c2noc(C(F)(F)F)n2)c1)n1ccnc1 [Compound 123],96%
